{
  "source": "paper PMC4503349",
  "about": "(PLoS ONE, 2015)",
  "key": {"[1]": {"biological_target": "T1, calcineurin (CaN; CnAα catalytic subunit) (Homo sapiens, UniProt Q08209)", "T1 construct": "gene PPP3CA; recombinant human CaN, comprising CnAα and CnB subunits; with calcineurin B (CnB); calmodulin", "assay": "malachite green phosphatase assay with RII phosphopeptide", "assay_type": "biochemical"}, "[2]": {"biological_target": "T1, calcineurin (CaN; CnAα catalytic subunit)", "assay": "malachite green phosphatase assay with RII phosphopeptide, absorbance dose-response, calmodulin present", "assay_type": "biochemical"}},
  "note": "Where a name gives a salt, the structure may show the parent alone.",
  "data": [
    {"compound": "O=C(O)[C@@H]1[C@H](C(=O)O)[C@H]2CC[C@@H]1O2", "note": "[endothall]", "values": [
      {"measurement": "IC50", "setting": "[1]", "value": 12.6, "unit": "µM"}
    ]},
    {"compound": "Fc1ccc(C(c2ccc(F)cc2)N2CCN(C/C=C/c3ccccc3)CC2)cc1", "note": "[LDN-0013905, flunarizine hydrochloride]", "values": [
      {"measurement": "IC50", "setting": "[2]; read-out: IC50", "value": 106, "unit": "µM"}
    ]},
    {"compound": "CN1CCN(CCCN2c3ccccc3Sc3ccc(C(F)(F)F)cc32)CC1", "note": "[LDN-0013906, tri-fluoperazine dihydrochloride]", "values": [
      {"measurement": "IC50", "setting": "[2]", "value": 4.5, "unit": "µM"}
    ]}
  ]
}
